Experiments:
[1] = biological target: T1, monocarboxylate transporter (MCT1) (Homo sapiens, UniProt P53985); conditions: read-out: Km, uptake by MCT1; uptake 1 min, room temperature
T1 sequence (P53985 1-500): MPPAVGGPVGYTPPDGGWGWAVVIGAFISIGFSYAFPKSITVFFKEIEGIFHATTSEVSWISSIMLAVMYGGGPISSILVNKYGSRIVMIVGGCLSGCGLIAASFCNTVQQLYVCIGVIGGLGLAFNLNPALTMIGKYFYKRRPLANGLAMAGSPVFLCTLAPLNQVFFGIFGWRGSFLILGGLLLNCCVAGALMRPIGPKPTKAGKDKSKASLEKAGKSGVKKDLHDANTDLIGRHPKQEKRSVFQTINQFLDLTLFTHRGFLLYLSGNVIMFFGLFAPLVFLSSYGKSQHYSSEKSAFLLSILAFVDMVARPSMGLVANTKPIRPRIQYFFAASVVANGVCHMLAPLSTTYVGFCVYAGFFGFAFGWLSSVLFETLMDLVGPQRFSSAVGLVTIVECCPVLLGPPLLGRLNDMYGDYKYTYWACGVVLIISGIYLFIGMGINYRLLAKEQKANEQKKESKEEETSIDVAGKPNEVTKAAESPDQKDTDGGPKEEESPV
Experimental: (§1) The known probe substrates used as positive controls are 3 μM chlorothiazide for OAT1, 2 μM estrone-3-sulfate for OAT3, 10 μM gabapentin for LAT1, 50 μM Gly-Sar for PepT1, 500 μM thiophene-2-glyoxylic acid for MCT1.
Enzyme kinetic data for uptake and metabolism of a Compound of the Disclosure is analysed by fitting the Michaelis-Menten equation to the data. V0=Vmax[S]/Km+[S], where V0 is initial velocity, [S] is substrate concentration, Vmax is maximum velocity and Km is substrate concentration at half Vmax. All fitting is performed using GraphPad Prism 8.4 software (GraphPad Software Inc). No weighting scheme is applied.

[2] = biological target: T2, PepT1 (Homo sapiens, UniProt P46059); assay: Inhibition of PepT1 uptake of known substrate Gly-Sar; assay type: cell-based; conditions: probe substrate Gly-Sar 50 μM
T2 construct: expressed in transfected cells
T2 sequence (P46059 1-708): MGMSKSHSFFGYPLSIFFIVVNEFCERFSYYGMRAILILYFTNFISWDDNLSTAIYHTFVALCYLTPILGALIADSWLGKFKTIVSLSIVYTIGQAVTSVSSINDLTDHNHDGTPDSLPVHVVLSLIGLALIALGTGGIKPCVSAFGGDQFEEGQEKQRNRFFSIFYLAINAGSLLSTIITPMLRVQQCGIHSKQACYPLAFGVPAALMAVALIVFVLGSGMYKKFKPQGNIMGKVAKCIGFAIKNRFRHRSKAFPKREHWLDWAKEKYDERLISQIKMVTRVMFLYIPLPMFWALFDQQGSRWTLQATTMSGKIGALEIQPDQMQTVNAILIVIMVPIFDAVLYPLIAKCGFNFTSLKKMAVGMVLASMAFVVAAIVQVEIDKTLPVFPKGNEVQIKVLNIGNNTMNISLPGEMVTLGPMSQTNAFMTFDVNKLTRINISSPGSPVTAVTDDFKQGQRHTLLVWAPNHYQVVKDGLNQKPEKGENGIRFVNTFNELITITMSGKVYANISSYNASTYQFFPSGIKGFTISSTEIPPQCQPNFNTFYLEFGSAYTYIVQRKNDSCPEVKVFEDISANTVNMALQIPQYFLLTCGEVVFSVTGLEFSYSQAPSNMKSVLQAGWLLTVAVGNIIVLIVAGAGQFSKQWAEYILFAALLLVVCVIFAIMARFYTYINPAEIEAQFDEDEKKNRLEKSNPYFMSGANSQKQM
Experimental: FIG. 2(d) is a line graph showing the concentration-inhibition curves for the inhibition of uptake of known substrate dipeptide Gly-Sar (50 μM) for PepT1. DMSO (0.5%) was the solvent control (SC) and the known inhibitor for the positive control (PC) was losartan (200 μM). Data were fit to either the Michaelis-Menten equation for uptake or the Hill equation for inhibition using the solvent control to define the top and the positive control inhibitor to define the bottom. Symbols represent the mean±SEM, n=3.
as §1
The IC50 value for the test item is determined by fitting the Hill equation in the following form:
where A % is the percent activity remaining (the mean cellular uptake observed in the solvent control sample set to 100% and the mean cellular uptake observed in the presence of the positive control inhibitor set to 0%), Top and Bottom are the upper and lower plateau of A %. [I] is the inhibitor concentration and IC50 is the inhibitor concentration where the remaining activity is at the midpoint between the Top and Bottom.

- Km [1]: 3000 µM
- IC50 [2]: 740 µM
Compound: CC(=O)N[C@@H](CC(C)C)C(=O)O [N-acetyl-L-leucine]
